Values quoted from earlier work, collected in PMC6276840, “Challenges and Opportunities of Nanotechnology as Delivery Platform for Tocotrienols in Cancer Therapy” (Frontiers in Pharmacology, 2018).
Each block holds one compound with its values, some of them ahead of it.

Legend:
[1] = design: method as in Lorusso et al., 2007; Rafiyath et al., 2012; Rom et al., 2014; settings: when delivered in liposomes; ref Lorusso et al., 2007; Rafiyath et al., 2012; Rom et al., 2014
MCF-7 = MCF-7 cells; ref Alayoubi et al., 2013
MDA-MB-231 = MDA-MB-231 cells; ref Alayoubi et al., 2013
[2] = design: method as in Yap et al., 2003; settings: rats; ref Yap et al., 2003

SMILES: COc1cccc2c1C(=O)c1c(O)c3c(c(O)c1C2=O)C[C@@](O)(C(=O)CO)C[C@@H]3O[C@H]1C[C@H](N)[C@H](O)[C@H](C)O1 [doxorubicin]
- cardiotoxicity [1]: markedly reduced
- hematological toxicity and palmar–plantar erythrodysesthesia [1]: increased incidence

- IC50 (MCF-7): 19 µM
- IC50 (MDA-MB-231): 8 µM
SMILES: CCC(C)(C)C(=O)O[C@H]1C[C@@H](C)C=C2C=C[C@H](C)[C@H](CC[C@@H]3C[C@@H](O)CC(=O)O3)[C@H]21 [simvastatin]

- absolute oral bioavailability [2]: less than 30%
SMILES: CC(C)=CCC/C(C)=C/CC/C(C)=C/CC[C@]1(C)CCc2c(C)c(O)c(C)c(C)c2O1 [α-tocotrienol]

SMILES: CC(C)=CCC/C(C)=C/CC/C(C)=C/CC[C@]1(C)CCc2cc(O)c(C)c(C)c2O1 [γ-tocotrienol]
- absolute oral bioavailability [2]: less than 10%

- absolute oral bioavailability [2]: less than 10%
SMILES: CC(C)=CCC/C(C)=C/CC/C(C)=C/CC[C@]1(C)CCc2cc(O)cc(C)c2O1 [δ-tocotrienol]
